Laboratory results published in PMC12663137 (Nature Communications, 2025).
Where “and” joins values, the source holds several entries; their conditions need not be identical. Equal values may be shown once.

How the values were obtained:
SV2A WT and L655Q [1] = system: SV2A WT and L655Q; design: method as in PMID: 31619465; settings: previous literature; ref PMID: 31619465; cited from earlier work
SV2AWT = target: T1, SV2AWT (Homo sapiens, UniProt Q7L0J3); experiment: Competitive displacement of 10 nM 3H-UCB-J, SV2AWT membranes (Fig. 1A); format: binding; settings: SV2A_WT
T1 construct: expressed in transfected cells; host or cells: HEK293 (ATCC CRL-1573), crude membranes
Method: (§1) Ligand binding studies were carried out using crude membranes prepared from HEK293 cells (ATCC, CRL-1573) overexpressing mVenus-SV2AWT or SV2AEM. Membranes were prepared either from transiently transfected cells or from baculovirus-infected cells as described previously. Cells were washed with DPBS (Ca^2+ and Mg^2+ free), followed by resuspending in cold SH buffer (10 mM HEPES-Tris pH 7.4, 320 mM sucrose) containing protease inhibitor cocktail (MedChemExpress) to a density of 10^7 cells/ml. This cell suspension was homogenized by passing through a bead homogenizer (Isobiotec) with 10-micron clearance bead on ice. The lysate was then centrifuged at 4000 × g for 5 min at 4 °C, and the supernatant was aliquoted, frozen in liquid nitrogen, and stored at −80 °C. The mVenus fluorescence estimated using fluorescence size-exclusion chromatography (FSEC) was used to normalize expression levels of mVenus-SV2A mutants studied as detailed previously. For all binding studies, membranes containing […] protein (estimated by BCA method) per reaction were used.
(§2) To obtain dose-response curves of studied SV2A ligands, membranes diluted in 0.2 ml binding buffer (50 mM Tris-Cl, pH 7.4, and 2 mM MgCl2) were incubated with indicated concentrations of ligands for 30 min at 4 °C. […] The binding reaction was arrested by trapping membranes on Unifilter-GF/C 96-well filter plates (Revvity) pre-soaked with 0.1%(w/v) polyethyleneimine (PEI). Membranes were then washed four times with 0.2 ml of cold binding buffer, dried, and 40 µl of scintillation liquid was added to each well. Radioactivity was monitored in MicroBeta2 plate counter (Revvity). Estimates for IC50 were obtained from fitting the data to three-parameter dose-response curves using GraphPad Prism 10.

SV2AEM = target: T2, SV2AEM (Homo sapiens, UniProt Q7L0J3); experiment: Competitive displacement of 10 nM 3H-UCB-J, SV2AEM membranes (Fig. 1A); format: binding; settings: for Binding of 3H-UCB-J (%): SV2A_EM; for binding response of SV2AEM vs wild-type SV2A: competition with 3H-UCB-J
T2 construct: expressed in transfected cells; host or cells: HEK293 (ATCC CRL-1573), crude membranes (transient transfection or baculovirus)
Method: as §1, §2

SV2A WT and L655Q [2] = experiment: 3H-padsevonil saturation binding, WT and L655Q (Supplementary Fig. 7D); design: species or system human; settings: L655Q vs WT
Method: as §1
An equal volume of dimethyl sulfoxide (DMSO) was added to control reactions. Reactions were arrested after 2 h by trapping the membranes on a Unifilter-GF/C 96-well filter plate pre-soaked with 0.1%(w/v) polyethyleneimine. […] Radioactivity was monitored in MicroBeta2 plate counter. […]

SV2A [3] = system: SV2A; design: method as in PMID: 31619465; settings: PSL vs BRV; ref PMID: 31619465; cited from earlier work
SV2A [4] = experiment: Affinity of PSL for the orthosteric site compared with LEV and BRV (author response); format: binding; settings: PSL vs LEV
Source text: - Does PSL modulate the binding of LEV or BRV to SV2A? Based on the ﬁndings of the present study, such experiments need to be included.
We appreciate this comment. It is not feasible to evaluate the modulatory eƯect of PSL on the binding of LEV or BRV, because PSL also binds to the orthosteric site, with much higher aƯinity than LEV (>1000-fold) or BRV (~100-fold), and directly competes with and readily displaces them (see Fig. below, for LEV , and PMID:
31619465 for BRV). This competitive eƯect of PSL on LEV and BRV has also been described in the literature (PMID: 31619465). We have discussed this limitation in the revised manuscript.
- SV2s belong to the SLC22 family. Is the allosteric binding site conserved in some of these proteins like for […]
Among the four key residues in the allosteric site (F188, Y461, S601, and L655), F188 and Y461 are conserved in OCT1 and OCT2; S601 is not conserved, and L655 is replaced by an alanine in OCT1 and OCT2 (Fig. below).
- Because no information is provided, I guess that the allosteric binding site of SV2A is not conserved in all MFS transporters. Therefore, the title is misleading and should be changed.
As described above, some of the key residues at this site are conserved in OCTs. However, it is unlikely that any single site, orthosteric or allosteric, is conserved across the entire MFS transporter family, and we fully […]

T2 sequence (Q7L0J3 141-742): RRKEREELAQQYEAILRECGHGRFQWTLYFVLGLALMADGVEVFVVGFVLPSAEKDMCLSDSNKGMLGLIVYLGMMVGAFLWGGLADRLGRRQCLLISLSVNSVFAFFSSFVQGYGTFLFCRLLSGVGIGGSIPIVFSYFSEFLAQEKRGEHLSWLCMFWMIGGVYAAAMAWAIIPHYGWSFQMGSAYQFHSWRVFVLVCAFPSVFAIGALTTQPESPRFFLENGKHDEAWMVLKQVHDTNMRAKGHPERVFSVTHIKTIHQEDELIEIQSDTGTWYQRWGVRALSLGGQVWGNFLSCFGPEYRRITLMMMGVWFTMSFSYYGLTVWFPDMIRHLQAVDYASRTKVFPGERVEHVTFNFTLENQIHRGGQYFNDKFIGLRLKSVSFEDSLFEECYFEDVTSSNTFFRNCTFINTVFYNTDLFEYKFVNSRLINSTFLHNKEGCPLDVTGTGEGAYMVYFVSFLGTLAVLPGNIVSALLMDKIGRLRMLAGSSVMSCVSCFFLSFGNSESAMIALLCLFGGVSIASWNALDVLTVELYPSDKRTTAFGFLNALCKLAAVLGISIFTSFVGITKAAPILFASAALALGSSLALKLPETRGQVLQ
T1 sequence (Q7L0J3 whole entry): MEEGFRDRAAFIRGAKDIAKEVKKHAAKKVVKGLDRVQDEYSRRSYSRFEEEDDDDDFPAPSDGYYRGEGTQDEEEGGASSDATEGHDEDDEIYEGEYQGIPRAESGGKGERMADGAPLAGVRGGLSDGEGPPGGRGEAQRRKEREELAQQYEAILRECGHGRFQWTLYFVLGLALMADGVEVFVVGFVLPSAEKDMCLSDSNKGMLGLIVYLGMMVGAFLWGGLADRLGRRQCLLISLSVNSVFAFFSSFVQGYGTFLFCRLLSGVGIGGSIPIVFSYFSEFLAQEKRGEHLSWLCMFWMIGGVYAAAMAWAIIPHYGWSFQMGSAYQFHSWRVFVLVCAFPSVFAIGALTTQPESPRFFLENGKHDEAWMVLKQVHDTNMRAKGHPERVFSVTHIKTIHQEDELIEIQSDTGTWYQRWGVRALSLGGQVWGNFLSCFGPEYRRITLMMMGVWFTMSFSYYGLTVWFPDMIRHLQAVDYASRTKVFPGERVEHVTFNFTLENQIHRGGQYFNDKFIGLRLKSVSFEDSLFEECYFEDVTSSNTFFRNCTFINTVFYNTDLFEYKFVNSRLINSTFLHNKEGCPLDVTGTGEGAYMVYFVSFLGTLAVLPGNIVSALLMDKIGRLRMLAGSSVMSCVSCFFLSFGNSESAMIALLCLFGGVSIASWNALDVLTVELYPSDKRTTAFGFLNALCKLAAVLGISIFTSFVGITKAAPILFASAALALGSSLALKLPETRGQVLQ

For COCc1nn2c(CN3C[C@@H](CC(F)(F)Cl)CC3=O)c(C(F)(F)F)nc2s1 [padsevonil], the Hill coefficient (SV2A WT and L655Q [1]) is given as ~1, the “Binding of 3H-UCB-J (%)” value (SV2AWT; Log [Padsevonil] (M) -5.523) is given as 0.15% and -0.08% and -0.07% and 0.0758% and -0.0562% and the “Binding of 3H-UCB-J (%)” value (SV2AWT; Log [Padsevonil] (M) -6.000) is given as 0.06% and 0.26% and 0.47% and 0.68% and 0.17% and 0.52%. For the same molecule, the “Binding of 3H-UCB-J (%)” value (SV2AWT; Log [Padsevonil] (M) -6.523) was -0.0333% and 0.63% and 1.13% and 0.79% and 1.06%, the “Binding of 3H-UCB-J (%)” value (SV2AWT; Log [Padsevonil] (M) -7.000) was 0.99% and 1.18% and 1.52% and 1.41% and 1.96% and 1.26% and the “Binding of 3H-UCB-J (%)” value (SV2AWT; Log [Padsevonil] (M) -7.523) was 11.48% and 11.90% and 12.69% and 11.26% and 10.29% and 8.18%. For the same molecule, the “Binding of 3H-UCB-J (%)” value (SV2AWT; Log [Padsevonil] (M) -8.000) was 53.01% and 65.10% and 62.58% and 68.15% and 66.28% and 57.17%, the “Binding of 3H-UCB-J (%)” value (SV2AWT; Log [Padsevonil] (M) -8.523) was 80.92% and 83.61% and 90.83% and 87.28% and 90.55% and 93.06% and the “Binding of 3H-UCB-J (%)” value (SV2AWT; Log [Padsevonil] (M) -9.000) was 70.83% and 92.57% and 94.89% and 80.96% and 85.33% and 98.78%. The “Binding of 3H-UCB-J (%)” value (SV2AWT; Log [Padsevonil] (M) -9.523) was 81.14% and 79.95% and 92.20% and 92.92% and 81.04% and 90.08%, the “Binding of 3H-UCB-J (%)” value (SV2AWT; Log [Padsevonil] (M) -10.000) was 105.07% and 88.23% and 106.70% and 105.83% and 107.31% and 86.86% and the “Binding of 3H-UCB-J (%)” value (SV2AEM; Log [Padsevonil] (M) -5.000) was 3.25% and 0.52% and -0.52% and -1.49% and 2.74% and 1.94%. For the same molecule, the “Binding of 3H-UCB-J (%)” value (SV2AEM; Log [Padsevonil] (M) -6.000) was 0.40% and 1.18% and 0.39% and -2.99% and 2.99% and -0.40%, the “Binding of 3H-UCB-J (%)” value (SV2AEM; Log [Padsevonil] (M) -6.523) was 3.53% and 6.77% and 1.25% and 5.54% and 6.72% and 2.16% and the “Binding of 3H-UCB-J (%)” value (SV2AEM; Log [Padsevonil] (M) -8.000) was 61.56% and 69.84% and 60.36% and 64.16% and 85.63% and 52.51%. For the same molecule, the “Binding of 3H-UCB-J (%)” value (SV2AEM; Log [Padsevonil] (M) -8.523) was 98.63% and 86.36% and 64.73% and 84.51% and 93.84% and 76.42%, the “Binding of 3H-UCB-J (%)” value (SV2AEM; Log [Padsevonil] (M) -9.000) was 99.89% and 102.95% and 84.66% and 80.15% and 101.99% and 100.11% and the “Binding of 3H-UCB-J (%)” value (SV2AEM; Log [Padsevonil] (M) -10.000) was 102.45% and 91.95% and 108.05% and 96.45% and 103.55% and 82.92%. For the same molecule, the “binding response of SV2AEM vs wild-type SV2A” value (SV2AEM) was “comparable to those of wild-type SV2A”, the “padsevonil binding in L655Q mutant compared to wild-type” value (SV2A WT and L655Q [2]) was “not able to detect a substantial difference” and the “orthosteric site affinity higher than BRV” value (SV2A [3]) was ~ 100 fold. The “orthosteric site affinity higher than LEV” value (SV2A [4]) was > 1000 fold.
With Cc1cnccc1CN1C[C@@H](c2cc(F)c(F)c(F)c2)CC1=O [UCB-J] the “Binding of 3H-UCB-J (%)” value (SV2AWT; Log [1H-UCB-J] (M) -5.000) was 0.68% and -0.10%, the “Binding of 3H-UCB-J (%)” value (SV2AWT; Log [1H-UCB-J] (M) -6.000) was 0.71% and -0.36% and 1.84% and 0.28% and 0.81% and 0.45% and the “Binding of 3H-UCB-J (%)” value (SV2AWT; Log [1H-UCB-J] (M) -6.523) was 1.22% and 0.52% and -0.33% and 0.54% and 1.39% and 0.90%. The “Binding of 3H-UCB-J (%)” value (SV2AWT; Log [1H-UCB-J] (M) -7.523) was 12.02% and 10.25% and 9.91% and 8.99% and 8.62% and 8.05%, the “Binding of 3H-UCB-J (%)” value (SV2AWT; Log [1H-UCB-J] (M) -8.000) was 31.03% and 29.35% and 27.21% and 30.71% and 28.47% and 28.55% and the “Binding of 3H-UCB-J (%)” value (SV2AWT; Log [1H-UCB-J] (M) -8.523) was 65.52% and 65.94% and 58.12% and 42.68% and 40.88% and 45.33%. For the same molecule, the “Binding of 3H-UCB-J (%)” value (SV2AWT; Log [1H-UCB-J] (M) -9.000) was 87.65% and 87.60% and 75.33% and 94.15% and 69.01% and 65.28%, the “Binding of 3H-UCB-J (%)” value (SV2AWT; Log [1H-UCB-J] (M) -9.523) was 75.61% and 87.06% and 81.72% and 100.70% and 107.65% and 91.65% and the “Binding of 3H-UCB-J (%)” value (SV2AWT; Log [1H-UCB-J] (M) -10.000) was 99.86% and 95.05% and 102.73% and 88.69% and 93.37% and 102.84%. For the same molecule, the “Binding of 3H-UCB-J (%)” value (SV2AWT; Log [1H-UCB-J] (M) -11.000) was 103.52% and 102.05% and 94.43% and 83.50% and 83.58% and 84.45%, the “Binding of 3H-UCB-J (%)” value (SV2AEM; Log [1H-UCB-J] (M) -6.523) was 2.78% and -1.47% and -5.78% and -0.31% and 4.06% and 1.75% and the “Binding of 3H-UCB-J (%)” value (SV2AEM; Log [1H-UCB-J] (M) -7.523) was 15.59% and 10.62% and 12.56% and 12.68% and 13.47% and 20.94%. The “Binding of 3H-UCB-J (%)” value (SV2AEM; Log [1H-UCB-J] (M) -8.000) was 31.93% and 22.52% and 28.83% and 28.77% and 31.87% and 32.29%, the “Binding of 3H-UCB-J (%)” value (SV2AEM; Log [1H-UCB-J] (M) -8.523) was 75.64% and 50.69% and 48.99% and 56.15% and 58.52% and 59.86% and the “Binding of 3H-UCB-J (%)” value (SV2AEM; Log [1H-UCB-J] (M) -9.000) was 73.21% and 53.48% and 72.67% and 79.47% and 76.43% and 84.63%. The “Binding of 3H-UCB-J (%)” value (SV2AEM; Log [1H-UCB-J] (M) -10.000) was 81.17% and 90.15%, the “Binding of 3H-UCB-J (%)” value (SV2AEM; Log [1H-UCB-J] (M) -11.000) was 103.75% and 70.18% and 88.51% and 77.34% and 86.03% and 113.17% and the “Binding of 3H-UCB-J (%)” value (SV2AEM; Log [1H-UCB-J] (M) -12.000) was 116.50% and 86.88% and 109.04% and 74.97% and 104.60% and 108.00%. The “IC50 fold lower than that of levetiracetam” value (SV2AEM; UCB-J vs levetiracetam) was 1000 fold, the “binding response of SV2AEM vs wild-type SV2A” value (SV2AEM) was “comparable to those of wild-type SV2A” and the IC50 (SV2AEM; radioligand displacement, 10 nM 3H-UCB-J, padsevonil sentence prints SV2A (Fig. 1)) was 4.1 ± 0.4 nM.
